Among the data in patent US20140045746A1 (Merck Sharp & Dohme Corp., priority 2012, published 2014) are EC50 values, retold here.

The target in assay [1] is T1, hGPR40 (Homo sapiens, UniProt O14842). Briefly: GPR40 Inositol Phosphate Turnover (IP1) Assay. Details: expressed in transfected cells; host or cells: HEK cells stably expressing the aequorin reporter. It counts as cell-based. To be noted: HEK cells stably expressing human GPR40; 0% serum; read-out: hGPR40 IP1 EC50 (0% serum).
Experimental: A human GPR40 stable cell-line was generated in HEK cells stably expressing the aequorin expressing reporter.
The assay is performed in 96-well format. HEK cells stably expressing human GPR^40 are plated to be 60-80% confluent within 72 h. After 72 h, the plates are aspirated and the cells washed with inositol-free DMEM (ICN). The wash media is replaced with 150 μL of 3H-inositol labeling media (inositol-free media containing 0.4% human albumin or 0.4% mouse albumin, 1× pen/strep antibiotics, glutamine, 25 mM HEPES to which is added 3H-myo-inositol NEN #NET114A 1mCi/mL, 25 Ci/mmol diluted 1:150 in loading media with a final specific radioactivity of 1 μCi/150 μL). Alternatively, the human and mouse albumin can be added after the overnight labeling step before the addition of LiCl.
The assay is typically run the next day after 18 h labeling. On the day of the assay, 5 μL, of 300 mM LiCl is added to all wells and incubated at 37 degrees for 20 min. 0.75 μL of 200× compounds are added and incubated with the cells for 60 min at 37 degrees. The media is then aspirated off and the assay terminated with the addition of 60 nI, 10 mM formic acid. The cells are lysed for 60 min at room temperature. 15-30 nI, of lysate is mixed with 70 mL/1 mg YSi SPA beads (Amersham) in clear bottom Isoplates. The plates are shaken for 2 h at room temperature. Beads are allowed to settle and the plates are counted in the Wallac Microbeta.
Assay [2] addresses T1, hGPR40. Description: GPR40 FLIPR assay (agonist-induced calcium mobilization).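 Further: calcium mobilization in the cells read as fluorescence of fluo-4 AM loaded cells on FLIPR after compound addition, cells preloaded with dye 100 min at room temperature.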 On the set-up: expressed in transfected cells; host or cells: CHO cells stably expressing NFAT BLA (beta-lactamase). It counts as cell-based. Particulars: GPR40/CHO NFAT BLA cells.

T1 sequence (O14842 whole entry): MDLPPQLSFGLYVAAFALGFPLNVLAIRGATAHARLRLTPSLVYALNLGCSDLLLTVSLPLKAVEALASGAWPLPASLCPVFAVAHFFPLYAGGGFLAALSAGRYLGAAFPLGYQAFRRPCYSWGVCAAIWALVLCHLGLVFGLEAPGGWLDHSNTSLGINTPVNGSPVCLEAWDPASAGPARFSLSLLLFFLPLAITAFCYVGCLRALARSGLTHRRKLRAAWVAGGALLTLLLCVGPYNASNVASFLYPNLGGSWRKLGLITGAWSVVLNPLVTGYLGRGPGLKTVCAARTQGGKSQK

Regarding `Cc1cc(OCCCS(C)(=O)=O)cc(C)c1-c1cc(COc2cc3c(cn2)[C@H]2[C@@H](C3)[C@@H]2C(=O)O)c(F)cc1F` [Compound 12-9, (5aR,6S,6aS)-3-((4,6-difluoro-2′,6′-dimethyl-4′-(3-(methylsulfonyl)-propoxy)-[1,1′-biphenyl]-3-yl)methoxy)-5,5a,6,6a-tetrahydrocyclo-propa[4,5] cyclopenta[1,2-c] pyridine-6-carboxylic acid], the EC50 at hGPR40 [1] was 3.7 nM; on hGPR40 [2], 26 nM.

As for `Cc1nc(OCCCS(C)(=O)=O)ccc1-c1cc(COc2cc3c(cn2)[C@H]2[C@@H](C3)[C@@H]2C(=O)O)ccc1C(F)(F)F` [Compound 12-10, (5aR,6S,6aS)-3-((3-(2-methyl-6-(3-(methylsulfonyl)propoxy)-pyridin-3-yl)-4-(trifluoromethyl)benzyl)oxy)-5,5a,6,6a-tetrahydrocyclo-propa[4,5] cyclopenta[1,2-c] pyridine-6-carboxylic acid], the EC50 at hGPR40 [1] was found to be 19 nM; on hGPR40 [2], 36 nM.

Take `CC(C)(O)COc1cc(C(F)(F)F)c(-c2cccc(COc3cc4c(cn3)[C@H]3[C@@H](C4)[C@@H]3C(=O)O)c2)cn1` [Compound 13-7]: the EC50 stood at 14 nM on hGPR40 [1] and 78 nM on hGPR40 [2].

With `CC(C)(O)COc1cc(C(F)(F)F)c(-c2ccc(F)c(COc3cc4c(cn3)[C@H]3[C@@H](C4)[C@@H]3C(=O)O)c2)cn1` [Compound 13-8, (5aR,6S,6aS)-3-((2-fluoro-5-(6-(2-hydroxy-2-methylpropoxy)-4-(trifluoromethyl)pyridin-3-yl)benzyl)oxy)-5,5a,6,6a-tetrahydrocyclopropa[4,5] cyclopenta[1,2-c]pyridine-6-carboxylic acid], the EC50 at hGPR40 [1] was found to be 3.7 nM; at hGPR40 [2], 59 nM.

With `Cc1cc(OCC(O)CO)cc(C)c1-c1ccc(F)c(COc2cc3c(cn2)[C@H]2[C@@H](C3)[C@@H]2C(=O)O)c1` (stereo partly drawn) [Compound 14-4, (5aR,6S,6aS)-3-((4′-(2,3-dihydroxypropoxy)-4-fluoro-2′,6′-dimethyl-[1,1′-biphenyl]-3-yl)methoxy)-5,5a,6,6a-tetrahydrocyclopropa[4,5]cyclopenta[1,2-c]pyridine-6-carboxylic acid], the EC50 worked out at 6.2 nM at hGPR40 [1] and 32 nM at hGPR40 [2].

Consider `Cc1cc(OCC(C)(CO)CO)cc(C)c1-c1ccc(F)c(COc2cc3c(cn2)[C@H]2[C@@H](C3)[C@@H]2C(=O)O)c1` [Compound 15-6, (5aR,6S,6aS)-3-((4-fluoro-4′-(3-hydroxy-2-(hydroxymethyl)-2-methylpropoxy)-2′,6′-dimethyl-[1,1′-biphenyl]-3-yl)methoxy)-5,5a,6,6a-tetrahydrocyclopropa [4,5]cyclopenta[1,2-c] pyridine-6-carboxylic acid], for which the EC50 at hGPR40 [1] was 14 nM; on hGPR40 [2], 46 nM.

For the compound `Cc1cc(OCC2CC(F)(F)C2)cc(C)c1-c1cccc(COc2cc3c(cn2)[C@H]2[C@@H](C3)[C@@H]2C(=O)O)c1` [Compound 16-8, (5aR,6S,6aS)-3-((4′-((3,3-difluorocyclobutyl)methoxy)-2′,6′-dimethyl-[1,1′-biphenyl]-3-yl)methoxy)-5,5a,6,6a-tetrahydrocyclopropa[4,5]cyclopenta[1,2-c]pyridine-6-carboxylic acid], the figures for the EC50 on hGPR40 [1] and at hGPR40 [2] were 55 nM and 20 nM, respectively.

Regarding `Cc1cc(OCCC2CC(F)(F)C2)cc(C)c1-c1ccc(F)c(COc2cc3c(cn2)[C@H]2[C@@H](C3)[C@@H]2C(=O)O)c1` [Compound 16-9, (5aR,6S,6aS)-3-((4′-(2-(3,3-difluorocyclobutyl)ethoxy)-4-fluoro-2′,6′-dimethyl-[1,1′-biphenyl]-3-yl)methoxy)-5,5a,6,6a-tetrahydro-cyclopropa[4,5] cyclopenta[1,2-c] pyridine-6-carboxylic acid], the results for the EC50 on hGPR40 [1] and at hGPR40 [2] were 45 nM and 19 nM, respectively.

`Cc1cc(OCCC2CC(F)(F)C2)cc(C)c1-c1cccc(COc2cc3c(cn2)[C@H]2[C@@H](C3)[C@@H]2C(=O)O)c1` [Compound 16-10, (5aR,6S,6aS)-3-((4′-(2-(3,3-difluorocyclobutyl)ethoxy)-2′,6′-dimethyl-[1,1′-biphenyl]-3-yl)methoxy)-5,5a, 6,6a-tetrahydro-cyclopropa[4,5] cyclopenta[1,2-c] pyridine-6-carboxylic acid]: the EC50 was found to be 57 nM at hGPR40 [1] and 15 nM on hGPR40 [2].

Regarding `CO/N=C(\C)CCCOc1cc(C)c(-c2cccc(COc3cc4c(cn3)[C@H]3[C@@H](C4)[C@@H]3C(=O)O)c2)c(C)c1` [Compound 17-5, (5aR,6S,6aS)-3-((4′-(((E)-4-(methoxyimino)pentyl)oxy)-2′,6′-dimethyl-[1,1′-biphenyl]-3-yl)methoxy)-5,5a,6,6a-tetrahydrocyclopropa[4,5]cyclopenta[1,2-c]pyridine-6-carboxylic acid], the EC50 on hGPR40 [1] amounted to 98 nM; on hGPR40 [2], 13 nM.

Take `CO/N=C(\C)CCCOc1ccc(-c2cccc(COc3cc4c(cn3)[C@H]3[C@@H](C4)[C@@H]3C(=O)O)c2)c(C)c1` [Compound 17-6, (5aR,6S,6aS)-3-((4′-(((E)-4-(methoxyimino)pentyl)oxy)-2′-methyl-[1,1′-biphenyl]-3-yl)methoxy)-5,5a,6,6a-tetrahydro-cyclopropa [4,5]cyclopenta [1,2-c]pyridine-6-carboxylic acid]: the concentration for a half-maximal effect (EC50) on hGPR40 [1] worked out at 29 nM; on hGPR40 [2], 13 nM.

As for `Cc1cc(OCCCN2CC(F)(F)C2)cc(C)c1-c1cccc(COc2cc3c(cn2)[C@H]2[C@@H](C3)[C@@H]2C(=O)O)c1` [Compound 18-4, (5aR,6S,6aS)-3-((4′-(3-(3,3-difluoroazetidin-1-yl)propoxy)-2′,6′-dimethyl-[1,1′-biphenyl]-3-yl)methoxy)-5,5a,6,6a-tetrahydrocyclopropa[4,5]cyclopenta[1,2-c]pyridine-6-carboxylic acid], the EC50 amounted to 26 nM at hGPR40 [1] and 16 nM on hGPR40 [2].

With `Cc1cc(CCC(C)(C)O)cc(C)c1-c1ccc(F)c(COc2cc3c(cn2)[C@H]2[C@@H](C3)[C@@H]2C(=O)O)c1` [Compound 19-6, (5aR,6S,6aS)-3-((4-fluoro-4′-(3-hydroxy-3-methylbutyl)-2′,6′-dimethyl-[1,1′-biphenyl]-3-yl)methoxy)-5,5a,6,6a-tetrahydrocyclopropa[4,5]cyclopenta[1,2-c]pyridine-6-carboxylic acid], the EC50 was determined as 4 nM on hGPR40 [1] and 20 nM on hGPR40 [2].

Take `Cc1cc(CCCCS(C)(=O)=O)cc(C)c1-c1ccc(F)c(COc2cc3c(cn2)[C@H]2[C@@H](C3)[C@@H]2C(=O)O)c1` [Compound 19-16, (5aR,6S,6aS)-3-((4-fluoro-2′,6′-dimethyl-4′-(4-(methylsulfonyl)butyl)-[1,1′-biphenyl]-3-yl)methoxy)-5,5a,6,6a-tetrahydrocyclopropa[4,5]cyclopenta[1,2-c]pyridine-6-carboxylic acid]: the values for the EC50 at hGPR40 [1] and at hGPR40 [2] were 7.3 nM and 160 nM, respectively.

On to `Cc1cc(CCCC(C)(C)O)cc(C)c1-c1ccc(F)c(COc2cc3c(cn2)[C@H]2[C@@H](C3)[C@@H]2C(=O)O)c1` [Compound 19-19, (5aR,6S,6aS)-3-((4-fluoro-4′-(4-hydroxy-4-methylpentyl)-2′,6′-dimethyl-[1,1′-biphenyl]-3-yl)methoxy)-5,5a,6,6a-tetrahydrocyclopropa[4,5]cyclopenta[1,2-c]pyridine-6-carboxylic acid], for which the EC50 on hGPR40 [1] came out at 5.5 nM; on hGPR40 [2], 36 nM.

For `CC(C)(O)CCOc1cc(C(F)(F)F)c(-c2ccc(F)c(COc3cc4c(cn3)C3C(C4)C3C(=O)O)c2)cn1` (stereo not shown) [Compound 20-5, 3-((2-fluoro-5-(6-(3-hydroxy-3-methylbutoxy)-4-(trifluoromethyl)pyridin-3-yl)benzyl)oxy)-5,5a,6,6a-tetrahydrocyclopropa[4,5]cyclopenta[1,2-c]pyridine-6-carboxylic acid], the EC50 on hGPR40 [1] is 15 nM; at hGPR40 [2], 76 nM.

In the case of `CC(C)(O)CCOc1cc(C(F)(F)F)c(-c2cccc(COc3cc4c(cn3)[C@H]3[C@@H](C4)[C@@H]3C(=O)O)c2)cn1` [Compound 20-6, (5aR,6S,6aS)-3-((3-(6-(3-hydroxy-3-methylbutoxy)-4-(trifluoromethyl)pyridin-3-yl)benzyl)oxy)-5,5a,6,6a-tetrahydro-cyclopropa[4,5] cyclopenta[1,2-c] pyridine-6-carboxylic acid], the EC50 on hGPR40 [1] is 4.9 nM; at hGPR40 [2] it was 19 nM.

In the case of `Cc1nc(OC2CCC(C(C)(C)O)CC2)ccc1-c1ccc(F)c(COc2cc3c(cn2)[C@H]2[C@@H](C3)[C@@H]2C(=O)O)c1` (stereo partly drawn) [Compound 20-8, (5aR,6S,6aS)-3-((2-fluoro-5-(6-((4-(2-hydroxypropan-2-yl)cyclohexyl)oxy)-2-methyl-pyridin-3-yl)benzyl)oxy)-5,5a, 6,6a-tetrahydro-cyclopropa[4,5] cyclopenta[1,2-c] pyridine-6-carboxylic acid], the EC50 on hGPR40 [1] came out at 175 nM; on hGPR40 [2] it was 99 nM.

On to `CC(C)(O)CCCOc1cc(C(F)(F)F)c(-c2ccc(F)c(COc3cc4c(cn3)[C@H]3[C@@H](C4)[C@@H]3C(=O)O)c2)cn1` [Compound 21-7, 3-((2-fluoro-5-(6-((4-hydroxy-4-methylpentyl)oxy)-4-(trifluoromethyl)pyridin-3-yl)benzyl)oxy)-5,5a,6,6a-tetrahydrocyclopropa[4,5]cyclopenta[1,2-c]pyridine-6-carboxylic acid], for which the EC50 on hGPR40 [1] came to 6.2 nM; at hGPR40 [2] it was 11 nM.

Consider `CC(C)(O)CCCOc1cc(C(F)(F)F)c(-c2cccc(COc3cc4c(cn3)[C@H]3[C@@H](C4)[C@@H]3C(=O)O)c2)cn1` [Compound 21-8, (5aR,6S,6aS)-3-((3-(6-((4-hydroxy-4-methylpentyl)-oxy)-4-(trifluoromethyl)-pyridin-3-yl)benzyl)oxy)-5,5a,6,6a-tetrahydrocyclo-propa[4,5]cyclopenta [1,2-c]pyridine-6-carboxylic acid], for which the EC50 at hGPR40 [1] was determined as 6.2 nM; at hGPR40 [2] it was 15 nM.

As usually defined, the EC50 is the midpoint of the concentration-response curve.
